# Experimental data from US7390910B2, “Compounds for treating tumors” (priority 2003, dated 2008).
# Marks after values point to notes of the source that are not given here.
# Columns and labels:
# [1] = test system: bovine microtubule-associated protein (MAP)-rich tubulin; format: biochemical
# Outline: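 MAP-rich bovine tubulin at 1.5 mg/ml final was dissolved in cold PEM buffer (80 mM Na-PIPES pH 6.9, 1 mM MgCl2, 1 mM EGTA) with 1 mM GTP, then centrifuged at 12,000×g for 10 min at 4° C. Aliquots of 100 μl were added quickly to a low-volume 96-well plate holding duplicate 10 μl compound samples. Absorbance at 340 nm was read each minute for 60 min at 24° C.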
# KB85 = assay: cells; format: cell-based; conditions: for IC50: 3 days, SRB
# Procedure: (§1) Cell Survival Assay: Standard Pharmacological Test Procedure. […] Compounds are incubated with cells for 3 days.
# KB cells = assay: cells; format: cell-based; conditions: for IC50: 3 days, SRB
# Procedure: as §1
# KBV1 = assay: cells; format: cell-based; conditions: for inhibition at 3 µM: KB-V1, 3000 nM; for IC50: 3 days, SRB
# Procedure: as §1
structure (smiles),measurement,setting,value
"CN[C@H](C(=O)N[C@H](C(=O)N(C)[C@H](/C=C(\C)S(=O)(=O)O)C(C)C)C(C)(C)C)C(C)(C)c1ccccc1 [Example 66, N,β,β-trimethyl-L-phenylalanyl-N^1-[(1S,2E)-1-isopropyl-3-sulfobut-2-enyl] N^1,3-dimethyl-L-valinamide]",Tubulin Polym. % inhibition at 0.3 uM,[1],91%
same,KB85 % inhibition @ 3000 nM,KB85; 3000 nM,0%
same,KB % inhibition @ 3000 nM,KB cells; 3000 nM,25%
same,KBV1 % inhibition @ 3000 nM,KBV1; 3000 nM,0%
"CN[C@H](C(=O)N[C@H](C(=O)N(C)[C@H](/C=C(\C)C(=O)N1CCC[C@@H]1C(=O)O)C(C)C)C(C)(C)C)C(C)(C)c1ccccc1 [Example 43, N,β,β-trimethyl-L-phenylalanyl-N^1-{(1S,2E)-4-[(2R)-2-carboxypyrrolidin-1-yl]-1-isopropyl-3-methyl-4-oxobut-2-enyl}-N^1,3-dimethyl-L-valinamide]",Tubulin Polym. % inhibition at 0.3 uM,[1],91%
same,IC50,KB85; 72 h,1580 nM
same,IC50,"KB cells; Homo sapiens, KB, 72 h",515 nM
same,inhibition at 3 µM,KBV1; Homo sapiens,0%
"CCOS(=O)(=O)/C(C)=C/[C@H](C(C)C)N(C)C(=O)[C@@H](NC(=O)[C@@H](NC)C(C)(C)c1ccccc1)C(C)(C)C [Example 65, N,β,β-trimethyl-L-phenylalanyl-N^1-[(1S,2E)-3-(ethoxysulfonyl)-1-isopropylbut-2-enyl]-N^1,3-dimethyl-L-valinamide]",Tubulin Polym. % inhibition at 0.3 uM,[1],44%
same,inhibition at 3 µM,KB85; 3000 nM,1%
same,inhibition at 3 µM,"KB cells; Homo sapiens, 72 h, 3000 nM",11%
same,inhibition at 3 µM,KBV1; Homo sapiens,0%
"CNC(C(=O)NC(C(=O)N(C)C(C=C(C)C=C(C)C(=O)O)C(C)C)C(C)(C)C)C(C)(C)c1ccccc1 (stereo not shown) [Example 79, 6-{[3,3-Dimethyl-2-(3-methyl-2-methylamino-3-phenyl-butyrylamino)-butyryl]-methyl-amino}-2,4,7-trimethyl-octa-2,4-dienoic acid]",Tubulin Polym. % inhibition at 0.5 uM,[1],90*** %
same,IC50,KB85; 72 h,53 nM
same,IC50,"KB cells; Homo sapiens, KB, 72 h",27 nM
same,IC50,"KBV1; Homo sapiens, KB-V1, 72 h",1580 nM
"CCOS(=O)(=O)/C=C/[C@H](C(C)C)N(C)C(=O)[C@@H](NC(=O)[C@@H](NC)C(C)(C)c1ccccc1)C(C)(C)C [Example 63, N,β,β-trimethyl-L-phenylalanyl-N^1-[(1S,2E)-3-(ethoxysulfonyl)-1-isopropylprop-2-enyl]-N^1,3-dimethyl-L-valinamide]",Tubulin Polym. % inhibition at 0.3 uM,[1],42%
same,inhibition at 3 µM,KB85; 3000 nM,0%
same,inhibition at 3 µM,"KB cells; Homo sapiens, 72 h, 3000 nM",1%
same,inhibition at 3 µM,KBV1; Homo sapiens,0%
"CCOP(=O)(OCC)/C(C)=C/[C@H](C(C)C)N(C)C(=O)[C@@H](NC(=O)[C@@H](NC)C(C)(C)c1ccccc1)C(C)(C)C [Example 71, N,β,β-trimethyl-L-phenylalanyl-N^1-[(1S,2E)-3-(diethoxyphosphoryl)-1-isopropyl-but-2-enyl]-N^1,3-dimethyl-L-valinamide]",Tubulin Polym. % inhibition at 0.3 uM,[1],64%
same,IC50,KB85; 72 h,1750 nM
same,IC50,"KB cells; Homo sapiens, KB, 72 h",1300 nM
same,inhibition at 3 µM,KBV1; Homo sapiens,0%
"CN[C@H](C(=O)N[C@H](C(=O)N(C)[C@H](/C=C(/C)S(=O)(=O)O)C(C)C)C(C)(C)C)C(C)(C)c1ccccc1 [Example 67, N,β,β-trimethyl-L-phenylalanyl-N^1-[(1S,2Z)-1-isopropyl-3-sulfobut-2-enyl]-N^1,3-dimethyl-L-valinamide]",Tubulin Polym. % inhibition at 0.3 uM,[1],21%
same,inhibition at 3 µM,KB85; 3000 nM,0%
same,inhibition at 3 µM,"KB cells; Homo sapiens, 72 h, 3000 nM",0%
same,inhibition at 3 µM,KBV1; Homo sapiens,0%
"CN[C@H](C(=O)N[C@H](C(=O)N(C)[C@H](/C=C(\C)C(=O)N1CCCC[C@H]1C(=O)O)C(C)C)C(C)(C)C)C(C)(C)c1ccccc1 [Example 50, N,β,β-trimethyl-L-phenylalanyl-N^1-{(1S,2E)-4-[(2S)-2-carboxypiperidin-1-yl]-1-isopropyl-3-methyl-4-oxobut-2-enyl}-N^1,3-dimethyl-L-valinamide]",Tubulin Polym. % inhibition at 0.3 uM,[1],84(2) %
same,IC50,KB85; 72 h,270 nM
same,IC50,"KB cells; Homo sapiens, KB, 72 h",64 nM
same,inhibition at 3 µM,KBV1; Homo sapiens,9%
"CN[C@@H](C(=O)N[C@H](C(=O)N(C)[C@H](/C=C(\C)C(=O)N1CCN(Cc2ccccc2)CC1)C(C)C)C(C)(C)C)C(C)(C)c1ccc(C)c(C)c1 [Example 13, N,β,β,3,4-Pentamethyl-D-phenylalanyl-N^1-[(1S,2E)-4-(4-benzylpiperazin-1-yl)-1-isopropyl-3-methyl-4-oxobut-2-enyl]-N^1,3-dimethyl-L-valinamide]",Tubulin Polym. % inhibition at 0.3 uM,[1],11%
same,IC50,KB85; 72 h,352 nM
same,IC50,"KB cells; Homo sapiens, KB, 72 h",172 nM
same,IC50,"KBV1; Homo sapiens, KB-V1, 72 h",1770 nM
"CN[C@H](C(=O)N[C@H](C(=O)N(C)[C@H](/C=C(\C)C(=O)N1C[C@H](O)C[C@H]1C(=O)OC)C(C)C)C(C)(C)C)C(C)(C)c1ccccc1 [Example 40, N,β,β-trimethyl-L-phenylalanyl-N^1-{(1S,2E)-4-[(2S,4R)-2-(methoxycarbonyl)-4-hydroxypyrrolidin-1-yl]-1-isopropyl-3-methyl-4-oxobut-2-enyl}-N^1,3-dimethyl-L-valinamide]",Tubulin Polym. % inhibition at 0.5 uM,[1],93*** %
same,IC50,KB85; 72 h,116 nM
same,IC50,"KB cells; Homo sapiens, KB, 72 h",3.5 nM
same,inhibition at 3 µM,KBV1; Homo sapiens,4%
"CN[C@H](C(=O)N[C@H](C(=O)N(C)[C@H](/C=C(\C)C(=O)O)C(C)C)C(C)(C)C)c1ccccc1 [Example 57, (2E,4S)-2,5-dimethyl-4-(methyl{3-methyl-N-[(2S)-2-(methylamino)-2-phenylethanoyl]-L-valyl}amino)-2-hexenoic acid]",Tubulin Polym. % inhibition at 0.3 uM,[1],75%
same,IC50,KB85; 72 h,2610 nM
same,IC50,"KB cells; Homo sapiens, KB, 72 h",1760 nM
same,inhibition at 3 µM,KBV1; Homo sapiens,7%
"CN[C@H](C(=O)N[C@H](C(=O)N(C)[C@H](/C=C(\C)C(=O)N1CCOCC1)C(C)C)C(C)(C)C)C(C)(C)c1cc(C)cc(C)c1 [Example 3, N,β,β,3,5-Pentamethyl-L-phenylalanyl-N^1-[(1S,2E)-1-isopropyl-3-methyl-4-morpholin-4-yl-4-oxobut-2-enyl]-N^1,3-dimethyl-L-valinamide]",Tubulin Polym. % inhibition at 0.3 uM,[1],51%
same,IC50,KB85; 72 h,176 nM
same,IC50,"KB cells; Homo sapiens, KB, 72 h",70 nM
same,IC50,"KBV1; Homo sapiens, KB-V1, 72 h",1760 nM
"CN[C@H](C(=O)N[C@H](C(=O)N(C)[C@H](/C=C(\C)C(=O)c1ccccc1)C(C)C)C(C)(C)C)C(C)(C)c1ccccc1 [Example 80, N,β,β-trimethyl-L-phenylalanyl-N-1-[(1S,2E)-1-isopropyl-3-methyl-4-oxo-4-phenylbut-2-enyl]-N-1,3-dimethyl-L-valinamide]",Tubulin Polym. % inhibition at 0.3 uM,[1],70%
same,IC50,KB85,1330 nM
same,IC50,KB cells,725 nM
same,IC50,KBV1,1800 nM
"CN[C@H](C(=O)N[C@H](C(=O)N(C)[C@H](/C=C(\C)C(=O)N1CC=C[C@H]1C(=O)OC)C(C)C)C(C)(C)C)C(C)(C)c1ccccc1 [Example 47, N,β,β-trimethyl-L-phenylalanyl-N^1-{(1S,2E)-1-isopropyl-4-[(2S)-2-(methoxycarbonyl)-2,5-dihydro-1H-pyrrol-1-yl]-3-methyl-4-oxobut-2-enyl}-N^1,3-dimethyl-L-valinamide]",Tubulin Polym. % inhibition at 0.3 uM,[1],88(2) %
same,IC50,KB85; 72 h,17 nM
same,IC50,"KB cells; Homo sapiens, KB, 72 h",3.5 nM
same,IC50,"KBV1; Homo sapiens, KB-V1, 72 h",272 nM
"CN[C@H](C(=O)N[C@H](C(=O)N(C)[C@H](/C=C(\C)C(=O)N1CCN(Cc2ccccc2)CC1)C(C)C)C(C)(C)C)C(C)(C)c1cc(C)cc(C)c1 [Example 14, N,β,β,3,5-Pentamethyl-L-phenylalanyl-N^1-[(1S,2E)-4-(4-benzylpiperazin-1-yl)-1-isopropyl-3-methyl-4-oxobut-2-enyl]-N^1,3-dimethyl-L-valinamide]",Tubulin Polym. % inhibition at 0.3 uM,[1],51(5) %
same,IC50,KB85; 72 h,135 nM
same,IC50,"KB cells; Homo sapiens, KB, 72 h",45 nM
same,IC50,"KBV1; Homo sapiens, KB-V1, 72 h",1650 nM
"CN[C@H](C(=O)N[C@H](C(=O)N(C)[C@H](/C=C(\C)C(=O)N1CCC[C@H]1[C@H](OC)[C@@H](C)C(=O)N[C@@H](Cc1ccccc1)c1nccs1)C(C)C)C(C)(C)C)C(C)(C)C1CCCCC1 [Example 44, 3-cyclohexyl-N-methyl-L-valyl-N^1-{(1S,2E)-1-isopropyl-4-[(2S)-2-((1R,2R)-1methoxy-2-methyl-3-oxo-3-{[(1S)-2-phenyl-1-(1,3-thiazol-2-yl)ethyl]amino}propyl)pyrrolidin-1-yl]-3-methyl-4-oxobut-2-enyl}-N^1,3-dimethyl-L-valinamide]",Tubulin Polym. % inhibition at 0.3 uM,[1],83%
same,IC50,KB85; 72 h,6.2 nM
same,IC50,"KB cells; Homo sapiens, KB, 72 h",1.5 nM
same,IC50,"KBV1; Homo sapiens, KB-V1, 72 h",475 nM
"CN[C@H](C(=O)N[C@H](C(=O)N(C)[C@H](/C=C(\C)C(=O)N1CCC[C@H]1C(=O)OC)C(C)C)C(C)(C)C)C(C)(C)c1cc(C)cc(C)c1 [Example 19, N,β,β,3,5-Pentamethyl-L-phenylalanyl-N^1-{(1S,2E)-4-[(2S)-2-(methoxycarbonyl)pyrrolidin-1-yl]-1-isopropyl-3-methyl-4-oxobut-2-enyl}-N^1,3-dimethyl-L-valinamide]",Tubulin Polym. % inhibition at 0.3 uM,[1],66%
same,IC50,KB85; 72 h,50 nM
same,IC50,"KB cells; Homo sapiens, KB, 72 h",5.9 nM
same,IC50,"KBV1; Homo sapiens, KB-V1, 72 h",1550 nM
"CN[C@H](C(=O)N[C@H](C(=O)N(C)[C@H](/C=C(\C)[C@@H](O)c1ccccc1)C(C)C)C(C)(C)C)C(C)(C)c1ccccc1 [Example 75, N,β,β-trimethyl-L-phenylalanyl-N-1-[(1S,2E,4R)-4-hydroxy-1-isopropyl-3-methyl-4-phenylbut-2-enyl}-N-1,3-dimethyl-L-valinamide]",Tubulin Polym. % inhibition at 0.5 uM,[1],83*** %
same,IC50,KB85,186 nM
same,IC50,KB cells,124 nM
same,IC50,KBV1,632 nM
"CN[C@H](C(=O)N[C@H](C(=O)N(C)[C@H](/C=C(\C)P(=O)(O)O)C(C)C)C(C)(C)C)C(C)(C)c1ccccc1 [Example 72, N,β,β-trimethyl-L-phenylalanyl-N^1-[(1S,2E)-1-isopropyl-3-phosphonobut-2-enyl]-N^1,3-dimethyl-L-valinamide]",Tubulin Polym. % inhibition at 0.3 uM,[1],53%
same,inhibition at 3 µM,KB85; 3000 nM,0%
same,inhibition at 3 µM,"KB cells; Homo sapiens, 72 h, 3000 nM",0%
same,inhibition at 3 µM,KBV1; Homo sapiens,4%
